pIC50: −log10 of the molar value.
Columns and labels:
[1] = test system: GM1 production in Jurkat cells; experiment: cells; assay type: cell-based; conditions: Homo sapiens, Jurkat, 72 h
[2] = target: T1, glucosylceramide synthase (GCS) (Homo sapiens, UniProt Q16739); experiment: GCS enzyme inhibition assay (A549 cell lysate, NBD C6-ceramide, HPLC fluorescence); assay type: biochemical; conditions: inhibitory activity against GCS, 37° C., 90 minutes
T1 construct: The obtained supernatant was used; host or cells: A549 cells (lysate supernatant after sonication)
T1 sequence (Q16739 1-394): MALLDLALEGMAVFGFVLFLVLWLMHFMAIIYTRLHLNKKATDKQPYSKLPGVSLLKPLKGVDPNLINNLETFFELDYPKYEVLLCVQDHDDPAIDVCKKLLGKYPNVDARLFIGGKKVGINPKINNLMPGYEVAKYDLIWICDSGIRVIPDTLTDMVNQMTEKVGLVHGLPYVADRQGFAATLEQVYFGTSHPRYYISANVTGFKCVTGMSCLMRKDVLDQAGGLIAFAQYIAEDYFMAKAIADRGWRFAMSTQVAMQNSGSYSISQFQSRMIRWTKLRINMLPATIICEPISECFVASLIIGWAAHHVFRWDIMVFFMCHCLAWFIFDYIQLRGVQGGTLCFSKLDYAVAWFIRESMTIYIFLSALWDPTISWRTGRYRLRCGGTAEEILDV
Protocol: Ibiglustat, known as a GCS inhibitor, was used as a control.
After the cells attached to the culture dish were washed with phosphate buffered saline (PBS), the cells were scraped off with a cell scraper and then centrifuged (4000 rpm, 3 min, 4° C.) to collect the cells in a 50 ml tube. The cell pellets were suspended in a lysis buffer (50 mM HEPES, pH 7.3, containing 1× the protease/phosphatase inhibitor cocktail), lysed by sonication, and then the lysate was centrifuged (13000 rpm, 10 min, 4° C.). The obtained supernatant was used for the quantitative analysis of proteins. The amount of proteins was measured using the BCA protein assay kit, using bovine serum albumin as a standard.
Enzymatic reactions were initiated by sequentially adding the following reaction materials to a 96 deep-well plate. Thereafter, the enzymatic reactions were performed at 37° C. for 90 minutes.
The enzymatic reactions were stopped by adding 100 μl of chloroform/methanol (2:1, v/v). After vortexing for 15 seconds, each mixture was centrifuged (4000 rpm, 10 min, 18° C.). The lower layer (50 μl) was transferred to a new 96 deep-well plate and dried with a reduced concentrator.
Data analysis was performed by the following equations. % Area(Sample)=Area(GlcCer)/[Area(Cer)+Area(GlcCer)]×100 % GCS activity=[Area(Sample)−Area(ibiglustat)]/[Area(DMSO)−Area(ibiglustat)]×100

Structure (SMILES) | pIC50 [1] | pIC50 [2]
O=C(NC1CCOc2cc(-c3ccsc3)ccc21)O[C@@H]1CN2CCC1CC2 (stereo partly drawn) [Example 64, (S)-quinuclidin-3-yl (7-(thiophen-3-yl)chroman-4-yl)carbamate] | 7.72 | 8.88
COc1ccc(Cl)c(-c2ccc3c(c2)OCCC3NC(=O)O[C@@H]2CN3CCC2CC3)c1 (stereo partly drawn) [Example 65, (S)-quinuclidin-3-yl (7-(2-chloro-5-methoxyphenyl)chroman-4-yl)carbamate] | 8.93 | 9.66
COc1cc(-c2ccc3c(c2)OCCC3NC(=O)O[C@@H]2CN3CCC2CC3)ccc1Cl (stereo partly drawn) [Example 66, (S)-quinuclidin-3-yl (7-(4-chloro-3-methoxyphenyl)chroman-4-yl)carbamate] | 7.95 | 8.76
COc1cccc(-c2ccc3c(c2)OCCC3NC(=O)O[C@@H]2CN3CCC2CC3)c1Cl (stereo partly drawn) [Example 67, (S)-quinuclidin-3-yl (7-(2-chloro-3-methoxyphenyl)chroman-4-yl)carbamate] | 7.95 | 9.03
COc1cc(-c2ccc3c(c2)OCCC3NC(=O)O[C@@H]2CN3CCC2CC3)ccn1 (stereo partly drawn) [Example 68, (S)-quinuclidin-3-yl (7-(2-methoxypyridin-4-yl)chroman-4-yl)carbamate] | 7.55 | 8.44
CN(C)c1cc(-c2ccc3c(c2)OCCC3NC(=O)O[C@@H]2CN3CCC2CC3)ccc1F (stereo partly drawn) [Example 69, (S)-quinuclidin-3-yl (7-(3-(dimethylamino)-4-fluorophenyl)chroman-4-yl)carbamate] | 8.05 | 8.72
O=C(NC1CCOc2cc(-c3ccc4c(c3)CCCO4)ccc21)O[C@@H]1CN2CCC1CC2 (stereo partly drawn) [Example 70, (S)-quinuclidin-3-yl [6,7′-bichroman]-4′-ylcarbamate] | 8.24 | 9.23
COc1ncc(-c2ccc3c(c2)OCCC3NC(=O)O[C@@H]2CN3CCC2CC3)cc1C(F)(F)F (stereo partly drawn) [Example 71, (S)-quinuclidin-3-yl (7-(6-methoxy-5-(trifluoromethyl)pyridin-3-yl)chroman-4-yl)carbamate] | 7.41 | 8.28
O=C(NC1CCOc2cc(-c3cnn(Cc4ccccc4)c3)ccc21)O[C@@H]1CN2CCC1CC2 (stereo partly drawn) [Example 72, (S)-quinuclidin-3-yl (7-(1-benzyl-1H-pyrazol-4-yl)chroman-4-yl)carbamate] | 7.89 | 9.04
O=C(NC1CCOc2cc(-c3ccc(C4CCOCC4)cc3)ccc21)O[C@@H]1CN2CCC1CC2 (stereo partly drawn) [Example 73, (S)-quinuclidin-3-yl (7-(4-(tetrahydro-2H-pyran-4-yl)phenyl)chroman-4-yl)carbamate] | 7.55 | 8.83
CN1C(=O)COc2ccc(-c3ccc4c(c3)OCCC4NC(=O)O[C@@H]3CN4CCC3CC4)cc21 (stereo partly drawn) [Example 74, (S)-quinuclidin-3-yl (7-(4-methyl-3-oxo-3,4-dihydro-2H-benzo[b][1,4]oxazin-6-yl)chroman-4-yl)carbamate] | 7.35 | 8.30
Cc1cc(-c2ccc3c(c2)OCCC3NC(=O)O[C@@H]2CN3CCC2CC3)ccc1N1CCOCC1 (stereo partly drawn) [Example 75, (S)-quinuclidin-3-yl (7-(3-methyl-4-morpholinophenyl)chroman-4-yl)carbamate] | 7.63 | 8.61
O=C(NC1CCOc2cc(-c3ccc(N4CCOCC4)c(Cl)c3)ccc21)O[C@@H]1CN2CCC1CC2 (stereo partly drawn) [Example 76, (S)-quinuclidin-3-yl (7-(3-chloro-4-morpholinophenyl)chroman-4-yl)carbamate] | 7.53 | 8.71
O=C(NC1CCOc2cc(-c3ccc(N4CCOCC4)c(F)c3)ccc21)O[C@@H]1CN2CCC1CC2 (stereo partly drawn) [Example 77, (S)-quinuclidin-3-yl (7-(3-fluoro-4-morpholinophenyl)chroman-4-yl)carbamate] | 7.54 | 8.48
Cc1ccc(-c2ccc3c(c2)OCCC3NC(=O)O[C@@H]2CN3CCC2CC3)cc1C#N (stereo partly drawn) [Example 78, (S)-quinuclidin-3-yl (7-(3-cyano-4-methylphenyl)chroman-4-yl)carbamate] | 7.56 | 8.90
COc1cncc(-c2ccc3c(c2)OCCC3NC(=O)O[C@@H]2CN3CCC2CC3)c1 (stereo partly drawn) [Example 79, (S)-quinuclidin-3-yl (7-(5-methoxypyridin-3-yl)chroman-4-yl)carbamate] | 7.48 | 8.59

Structure (SMILES) | pIC50 [1] | pIC50 [2]
COc1ncc(-c2ccc3c(c2)OCCC3NC(=O)O[C@@H]2CN3CCC2CC3)cc1Cl (stereo partly drawn) [Example 80, (S)-quinuclidin-3-yl (7-(5-chloro-6-methoxypyridin-3-yl)chroman-4-yl)carbamate] | 7.35 | 8.24
O=C(NC1CCOc2cc(-c3ccc(OCC4CC4)nc3)ccc21)O[C@@H]1CN2CCC1CC2 (stereo partly drawn) [Example 81, (S)-quinuclidin-3-yl (7-(6-(cyclopropylmethoxy)pyridin-3-yl)chroman-4-yl)carbamate] | 7.83 | 9.03
CC(C)Oc1ccc(-c2ccc3c(c2)OCCC3NC(=O)O[C@@H]2CN3CCC2CC3)cc1Cl (stereo partly drawn) [Example 82, (S)-quinuclidin-3-yl (7-(3-chloro-4-isopropoxyphenyl)chroman-4-yl)carbamate] | 8.15 | 8.54
COc1ccc(-c2ccc3c(c2)OCCC3NC(=O)O[C@@H]2CN3CCC2CC3)cc1C(F)(F)F (stereo partly drawn) [Example 83, (S)-quinuclidin-3-yl (7-(4-methoxy-3-(trifluoromethyl)phenyl)chroman-4-yl)carbamate] | 7.71 | 8.41
COc1cccc(OC)c1-c1ccc2c(c1)OCCC2NC(=O)O[C@@H]1CN2CCC1CC2 (stereo partly drawn) [Example 84, (S)-quinuclidin-3-yl (7-(2,6-dimethoxyphenyl)chroman-4-yl)carbamate] | 8.14 | 8.55
O=C(NC1CCOc2ccc(-c3ccc(F)cc3)cc21)O[C@@H]1CN2CCC1CC2 (stereo partly drawn) [Example 85, (S)-quinuclidin-3-yl (6-(4-fluorophenyl)chroman-4-yl)carbamate] | 6.65 | 8.01
O=C(NC1CCOc2ccc(-c3cccc(F)c3)cc21)O[C@@H]1CN2CCC1CC2 (stereo partly drawn) [Example 86, (S)-quinuclidin-3-yl (6-(3-fluorophenyl)chroman-4-yl)carbamate] | 6.74 | 8.01
O=C(NC1CCOc2ccc(-c3ccccc3F)cc21)O[C@@H]1CN2CCC1CC2 (stereo partly drawn) [Example 87, (S)-quinuclidin-3-yl (6-(2-fluorophenyl)chroman-4-yl)carbamate] | 7.01 | 8.45
O=C(NC1CCOc2ccc(-c3ccc(Cl)cc3)cc21)O[C@@H]1CN2CCC1CC2 (stereo partly drawn) [Example 88, (S)-quinuclidin-3-yl (6-(4-chlorophenyl)chroman-4-yl)carbamate] | 6.80 | 8.03
O=C(NC1CCOc2ccc(-c3cccc(Cl)c3)cc21)O[C@@H]1CN2CCC1CC2 (stereo partly drawn) [Example 89, (S)-quinuclidin-3-yl (6-(3-chlorophenyl)chroman-4-yl)carbamate] | 6.66 | 8.18
O=C(NC1CCOc2ccc(-c3ccccc3Cl)cc21)O[C@@H]1CN2CCC1CC2 (stereo partly drawn) [Example 90, (S)-quinuclidin-3-yl (6-(2-chlorophenyl)chroman-4-yl)carbamate] | 6.85 | 8.37
O=C(NC1CCOc2ccc(-c3ccc(C(F)(F)F)cc3)cc21)O[C@@H]1CN2CCC1CC2 (stereo partly drawn) [Example 91, (S)-quinuclidin-3-yl (6-(4-(trifluoromethyl)phenyl)chroman-4-yl)carbamate] | 6.77 | 8.27
O=C(NC1CCOc2ccc(-c3cccc(C(F)(F)F)c3)cc21)O[C@@H]1CN2CCC1CC2 (stereo partly drawn) [Example 92, (S)-quinuclidin-3-yl (6-(3-(trifluoromethyl)phenyl)chroman-4-yl)carbamate] | 6.31 | 7.53
O=C(NC1CCOc2ccc(-c3ccccc3C(F)(F)F)cc21)O[C@@H]1CN2CCC1CC2 (stereo partly drawn) [Example 93, (S)-quinuclidin-3-yl (6-(2-(trifluoromethyl)phenyl)chroman-4-yl)carbamate] | 7.10 | 8.37
O=C(NC1CCOc2ccc(-c3ccc(OC(F)(F)F)cc3)cc21)O[C@@H]1CN2CCC1CC2 (stereo partly drawn) [Example 94, (S)-quinuclidin-3-yl (6-(4-(trifluoromethoxy)phenyl)chroman-4-yl)carbamate] | 6.39 | 8.09
O=C(NC1CCOc2ccc(-c3cccc(OC(F)(F)F)c3)cc21)O[C@@H]1CN2CCC1CC2 (stereo partly drawn) [Example 95, (S)-quinuclidin-3-yl (6-(3-(trifluoromethoxy)phenyl)chroman-4-yl)carbamate] | 6.29 | 7.70

From patent US12673944B2, “Compounds having inhibitory activity against glucosylceramide synthase or pharmaceutically acceptable salt thereof, processes for preparing the same, and pharmaceutical compositions comprising the same” (YUHAN CORPORATION, priority 2019, dated 2026)
